According to patent US6723753B2, “Substituted n-benzyl-n-phenyl aminoalcohol compounds useful for inhibiting cholesteryl ester transfer protein activity” (Pharmacia Corporation, priority 2002, dated 2004):

Experiments:
[1] = target: T1, CETP (Homo sapiens, UniProt P11597); assay: Assay of CETP Inhibition in Human Plasma; assay type: biochemical; set-up: Blood was obtained from healthy volunteers, recruited from the personnel of Monsanto Company; from tissue; host or cells: human EDTA plasma pool from healthy volunteers; conditions: transfer of [3H]CE from HDL to VLDL and LDL
T1 sequence (P11597 18-493): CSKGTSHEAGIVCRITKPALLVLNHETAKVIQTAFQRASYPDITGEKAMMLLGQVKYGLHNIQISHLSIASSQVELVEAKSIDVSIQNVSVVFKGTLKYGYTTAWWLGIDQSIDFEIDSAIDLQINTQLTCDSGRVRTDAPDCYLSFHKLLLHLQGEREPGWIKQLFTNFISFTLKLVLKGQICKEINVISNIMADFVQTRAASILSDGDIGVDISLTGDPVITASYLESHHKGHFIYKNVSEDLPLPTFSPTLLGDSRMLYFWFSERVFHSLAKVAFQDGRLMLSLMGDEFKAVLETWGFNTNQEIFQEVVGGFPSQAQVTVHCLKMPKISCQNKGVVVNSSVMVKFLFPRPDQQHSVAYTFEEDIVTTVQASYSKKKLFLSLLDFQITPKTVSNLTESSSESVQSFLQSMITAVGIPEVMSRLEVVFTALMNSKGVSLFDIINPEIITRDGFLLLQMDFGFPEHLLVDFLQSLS
Procedure: Assay of CETP Inhibition in Human Plasma
Blood was obtained from healthy volunteers, recruited from the personnel of Monsanto Company, Saint Louis, Mo. Blood was collected in tubes containing EDTA (EDTA plasma pool). The EDTA human plasma pool, previously stored at −20° C., was thawed at room temperature and centrifuged for 5 minutes to remove any particulate matter. […] Equal volumes (396 μL) of the plasma containing the [^3H]CE-HDL were added by pipette into micro tubes (Titertube®, Bio-Rad laboratories, Hercules, Calif.). Inhibitor compounds, dissolved as 20-50 mM stock solutions in DMSO, were serially diluted in DMSO (or an alternative solvent in some cases, such as dimethylformamide or ethanol). Four μL of each of the serial dilutions of inhibitor compounds or DMSO alone were then added to each of the tubes containing plasma (396 μL). After mixing, triplicate aliquots (100 μL) from each plasma tube were then transferred to wells of 96-well round-bottomed polystyrene microtiter plates (Corning, Corning, N.Y.). Plates were sealed with plastic film and incubated at 37° C. for 4 hours. “Test” samples contained plasma with dilutions of inhibitor compounds. “Control” samples contained plasma with DMSO diluted to the same concentration as the test samples, but without inhibitor. “Blank” samples were prepared as “control” samples, but were left in the micro tubes at 4° C. for the 4 hour incubation and were then added to the microtiter wells at the end of the incubation period. VDL and LDL were precipitated by the addition of 10 μL of precipitating reagent (1% (w/v) dextran sulfate (Dextralip50)/0.5 M magnesium chloride, pH 7.4) to all wells. The wells were mixed on a plate mixer and then incubated at ambient temperature for 10 min. The plates were then centrifuged at 1000× g for 30 min at 10° C. The supernatants (50 μL) from each well were then transferred to Picoplate™ 96 plate wells (Packard, Meriden, Conn.) containing Microscint™-40 (Packard, Meriden, Conn.). The plates were heat-sealed (TopSeal™-P, Packard, Meriden, Conn.) according to the manufacturer's directions and mixed for 30 min. Radioactivity was measured on a microplate scintillation counter (TopCount, Packard, Meriden, Conn.). The maximum percentage transfer in the control wells (% transfer) was determined using the following equation: [formula]
The percentage of transfer relative to the control (% control) was determined in the wells containing inhibitor compounds was determined as follows: [formula]
IC50 values were then calculated from plots of % control versus concentration of inhibitor compound.

[2] = target: T1, CETP; assay: Assay of CETP Inhibition using Purified Components (Reconstituted Buffer Assay); assay type: biochemical; set-up: made in house; host or cells: CHO cells (serum-free conditioned medium); conditions: Inhibition of CETP activity in reconstituted buffer assay; transfer of [3H]CE from HDL to LDL; read-out: IC50
Summary of the method: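 Transfer of radiolabeled cholesteryl ester from HDL to LDL was run for 2 h at 37 °C in pH 7.4 Tris buffer with 1% BSA, using purified CHO-expressed human CETP. Precipitated LDL radioactivity, measured by scintillation after dextran sulfate/MgCl2 precipitation and filtration, yielded the IC50.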

[3] = Inhibition of CETP activity in human plasma assay, read-out: IC50

IC50 [1, 3] | IC50 [2] | Compound | IC50 ([1]; IC50, Inhibition of CETP activity in human plasma assay)
76 µM | 1.9 µM | OC(CN(Cc1cccc(OC(F)(F)C(F)F)c1)c1cccc(Nc2cccc(Cl)c2)c1)C(F)(F)F (stereo not shown) [Example 304] | 
76 µM | 1.2 µM | COc1cccc(Nc2cccc(N(Cc3cccc(OC(F)(F)C(F)F)c3)CC(O)C(F)(F)F)c2)c1 (stereo not shown) [Example 305] | 
81 µM | 2 µM | OC(CN(Cc1cccc(OC(F)(F)C(F)F)c1)c1cccc(Nc2cc(F)cc(F)c2)c1)C(F)(F)F (stereo not shown) [Example 307] | 
> 100 µM | 2.6 µM | COc1ccc(Nc2cccc(N(Cc3cccc(OC(F)(F)C(F)F)c3)CC(O)C(F)(F)F)c2)cc1OC (stereo not shown) [Example 309] | 
> 100 µM | 2.6 µM | OC(CN(Cc1cccc(OC(F)(F)C(F)F)c1)c1cccc(NCc2cccc(C(F)(F)F)c2)c1)C(F)(F)F (stereo not shown) [Example 311] | 
65 µM | 1.8 µM | CCN(c1cccc(C)c1)c1cccc(N(Cc2cccc(OC(F)(F)C(F)F)c2)CC(O)C(F)(F)F)c1 (stereo not shown) [Example 312] | 
> 100 µM | 3 µM | OC(CN(Cc1cccc(I)c1)c1cccc(OC(F)(F)F)c1)C(F)(F)F (stereo not shown) [Example 322] | 
24 µM | 0.23 µM | OC(CN(Cc1cccc(OC(F)(F)C(F)F)c1)c1cccc(OCc2cc(C(F)(F)F)cc(C(F)(F)F)c2)c1)C(F)(F)F (stereo not shown) [Example 377] | 
12 µM | 0.2 µM | OC(CN(Cc1cccc(OC(F)(F)C(F)F)c1)c1cccc(OCc2cc(F)cc(F)c2)c1)C(F)(F)F (stereo not shown) [Example 378] | 
29 µM | 0.42 µM | Cc1ccc(COc2cccc(N(Cc3cccc(OC(F)(F)C(F)F)c3)CC(O)C(F)(F)F)c2)cc1 (stereo not shown) [Example 385] | 
> 50 µM | 0.7 µM | OC(CN(Cc1cccc(OC(F)(F)C(F)F)c1)c1cccc(OCc2ccc(OC(F)F)cc2)c1)C(F)(F)F (stereo not shown) [Example 389] | 
24 µM | 0.34 µM | OC(CN(Cc1cccc(OC(F)(F)C(F)F)c1)c1cccc(OCc2ccccc2F)c1)C(F)(F)F (stereo not shown) [Example 390] | 
25 µM | 0.56 µM | OC(CN(Cc1cccc(OC(F)(F)C(F)F)c1)c1cccc(OCc2ccc(F)cc2)c1)C(F)(F)F (stereo not shown) [Example 391] | 
5 µM | 0.82 µM | OC(CN(Cc1cccc(OC(F)(F)C(F)F)c1)c1cccc(OCc2cccc(Cl)c2F)c1)C(F)(F)F (stereo not shown) [Example 393] | 
10 µM | 1.1 µM | OC(CN(Cc1cccc(OC(F)(F)C(F)F)c1)c1cccc(OCc2ccc(F)cc2F)c1)C(F)(F)F (stereo not shown) [Example 395] | 
10 µM | 0.86 µM | OC(CN(Cc1cccc(OC(F)(F)C(F)F)c1)c1cccc(OCc2ccc(C(F)(F)F)cc2C(F)(F)F)c1)C(F)(F)F (stereo not shown) [Example 396] | 
10 µM | 0.81 µM | OC(CN(Cc1cccc(OC(F)(F)C(F)F)c1)c1cccc(OCc2cc(F)ccc2F)c1)C(F)(F)F (stereo not shown) [Example 397] | 
3.4 µM | 0.35 µM | OC(CN(Cc1cccc(OC(F)(F)C(F)F)c1)c1cccc(OCc2cccc(F)c2F)c1)C(F)(F)F (stereo not shown) [Example 399] | 

IC50 [1, 3] | IC50 [2] | Compound | IC50 ([1]; IC50, Inhibition of CETP activity in human plasma assay)
6.3 µM | 0.21 µM | OC(CN(Cc1cccc(OC(F)(F)C(F)F)c1)c1cccc(OCc2cccc(C(F)(F)F)c2F)c1)C(F)(F)F (stereo not shown) [Example 400] | 
4.2 µM | 0.18 µM | OC(CN(Cc1cccc(OC(F)(F)C(F)F)c1)c1cccc(OCc2cccc(Br)c2)c1)C(F)(F)F (stereo not shown) [Example 401] | 
2.9 µM | 0.33 µM | Cc1cccc(COc2cccc(N(Cc3cccc(OC(F)(F)C(F)F)c3)CC(O)C(F)(F)F)c2)c1 (stereo not shown) [Example 402] | 
6.2 µM | 0.6 µM | OC(CN(Cc1cccc(OC(F)(F)C(F)F)c1)c1cccc(OCc2cccc(I)c2)c1)C(F)(F)F (stereo not shown) [Example 405] | 
4.4 µM | 0.44 µM | CC(Oc1cccc(N(Cc2cccc(OC(F)(F)C(F)F)c2)CC(O)C(F)(F)F)c1)c1ccccc1 (stereo not shown) [Example 429] | 
14 µM | 0.42 µM | O=[N+]([O-])c1ccccc1Oc1cccc(N(Cc2cccc(OC(F)(F)C(F)F)c2)CC(O)C(F)(F)F)c1 (stereo not shown) [Example 436, 3-[[3-(2-nitrophenoxy)phenyl][[3-(1,1,2,2-tetrafluoroethoxy)phenyl]-methyl]amino]-1,1,1-trifluoro-2-propanol] | 
13 µM | 1 µM | O=[N+]([O-])c1cc(Br)ccc1Oc1cccc(N(Cc2cccc(OC(F)(F)C(F)F)c2)CC(O)C(F)(F)F)c1 (stereo not shown) [Example 439] | 
24 µM | 0.77 µM | O=[N+]([O-])c1c(F)cccc1Oc1cccc(N(Cc2cccc(OC(F)(F)C(F)F)c2)CC(O)C(F)(F)F)c1 (stereo not shown) [Example 440] | 
> 50 µM | 9.8 µM | Cc1ccc([N+](=O)[O-])cc1Oc1cccc(N(Cc2cccc(OC(F)(F)C(F)F)c2)CC(O)C(F)(F)F)c1 (stereo not shown) [Example 447] | 
16 µM | 0.37 µM | CC(C)Sc1cccc(N(Cc2cccc(OC(F)(F)C(F)F)c2)CC(O)C(F)(F)F)c1 (stereo not shown) [Example 473, 3-[[3-[(1-methylethyl)thio]phenyl][[3-(1,1,2,2-tetrafluoroethoxy)phenyl]-methyl]amino]-1,1,1-trifluoro-2-propanol] | 
37 µM | 0.64 µM | O=[N+]([O-])c1ccc(Sc2cccc(N(Cc3cccc(OC(F)(F)C(F)F)c3)CC(O)C(F)(F)F)c2)cc1 (stereo not shown) [Example 475] | 
8.8 µM | 0.33 µM | CC(C)Oc1cccc(N(Cc2cccc(OC(F)(F)C(F)F)c2)CC(O)C(F)(F)F)c1 (stereo not shown) [Example 489] | 
34 µM | 0.83 µM | COC(=O)C=CCOc1cccc(N(Cc2cccc(OC(F)(F)C(F)F)c2)CC(O)C(F)(F)F)c1 (stereo not shown) [Example 499] | 
18 µM | 0.75 µM | OC(CN(Cc1cccc(OC(F)(F)C(F)F)c1)c1cccc(-c2ccc(F)c(Cl)c2)c1)C(F)(F)F (stereo not shown) [Example 554] | 
49 µM | 0.92 µM | O=[N+]([O-])c1cccc(-c2cccc(N(Cc3cccc(OC(F)(F)C(F)F)c3)CC(O)C(F)(F)F)c2)c1 (stereo not shown) [Example 556] | 
34 µM | 0.88 µM | OC(CN(Cc1cccc(OC(F)(F)C(F)F)c1)c1cccc(-c2cc(Cl)cc(Cl)c2)c1)C(F)(F)F (stereo not shown) [Example 557] | 
38 µM | 0.69 µM | COc1ccc(-c2cccc(N(Cc3cccc(OC(F)(F)C(F)F)c3)CC(O)C(F)(F)F)c2)cc1 (stereo not shown) [Example 558] | 
8 µM | 0.56 µM | OC(CN(Cc1cccc(OC(F)(F)C(F)F)c1)c1cccc(-c2ccc(F)c(F)c2)c1)C(F)(F)F (stereo not shown) [Example 559] | 

Compound | IC50 [1, 3] | IC50 [2] | IC50 ([1]; IC50, Inhibition of CETP activity in human plasma assay)
OC(CN(Cc1cccc(OC(F)(F)C(F)F)c1)c1cccc(OCc2cccc(C(F)(F)F)c2)c1)C(F)(F)F (stereo not shown) [Example 379] |  | 0.098 µM | 7.7 µM
OC(CN(Cc1cccc(OC(F)(F)C(F)F)c1)c1cccc(-c2cccc(C(F)(F)F)c2)c1)C(F)(F)F (stereo not shown) [Example 550, 1,1,1-trifluoro-3-[[[3-(1,1,2,2-tetrafluoroethoxy)phenyl]methyl][[3′-(trifluoromethyl)1,1′-biphenyl]-3-yl]amino]-2-propanol] | 30 µM | 0.5 µM | 
